Source: the supplement of paper PMC10307832

Legend:
Assay in all cases: relative viability (nuclei count vs DMSO), 5 days (fraction); higher = more cells survive
XMD8-85 + Linsitinib = compound: CN1CCN(CC1)C2=CC(=C(C=C2)NC3=NC=C4C(=N3)N(C5=CC=CC=C5C(=O)N4C)C)OC [XMD8-85] + C[C@]1(O)C[C@@H](c2nc(-c3ccc4ccc(-c5ccccc5)nc4c3)c3c(N)nccn32)C1 [Linsitinib] (partner 1 µM)
Procedure, shortened: (§1)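 Medians of duplicate plates are given as relative viability. That measure is the nuclei count in treated wells divided by the count in vehicle wells. Counts were taken on 4× images of lung cancer cell lines in 1536-well plates, 5 days after pin-tool dosing the day after seeding with one drug alone or a fixed anchor-drug dose plus five library-drug doses (not always all listed) in √10 steps.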

4EGI-1 + Crizotinib = compound: O=C(O)C(Cc1ccccc1[N+](=O)[O-])=NNc1nc(-c2ccc(Cl)c(Cl)c2)cs1 (mixture of isomers) [4EGI-1] + C[C@@H](Oc1cc(-c2cnn(C3CCNCC3)c2)cnc1N)c1c(Cl)ccc(F)c1Cl [Crizotinib] (partner 1 µM)
Procedure, shortened: as §1

4EGI-1 + Pemetrexed = compound: O=C(O)C(Cc1ccccc1[N+](=O)[O-])=NNc1nc(-c2ccc(Cl)c(Cl)c2)cs1 (mixture of isomers) [4EGI-1] + Nc1nc2[nH]cc(CCc3ccc(C(=O)N[C@@H](CCC(=O)O)C(=O)O)cc3)c2c(=O)[nH]1 [Pemetrexed] (partner 0.2 µM)
Procedure, shortened: as §1

4EGI-1 + Olaparib = compound: O=C(O)C(Cc1ccccc1[N+](=O)[O-])=NNc1nc(-c2ccc(Cl)c(Cl)c2)cs1 (mixture of isomers) [4EGI-1] + O=C(c1cc(Cc2n[nH]c(=O)c3ccccc23)ccc1F)N1CCN(C(=O)C2CC2)CC1 [Olaparib] (partner 8 µM)
Procedure, shortened: as §1

| Cell Line | relative viability (XMD8-85 + Linsitinib; first compound 0.08 µM) | relative viability (XMD8-85 + Linsitinib; first compound 0.253 µM) | relative viability (XMD8-85 + Linsitinib; first compound 0.8 µM) | relative viability (XMD8-85 + Linsitinib; first compound 2.53 µM) | relative viability (XMD8-85 + Linsitinib; first compound 8 µM) | relative viability (4EGI-1 + Crizotinib; first compound 0.5 µM) | relative viability (4EGI-1 + Crizotinib; first compound 5 µM) | relative viability (4EGI-1 + Crizotinib; first compound 15.81 µM) | relative viability (4EGI-1 + Crizotinib; first compound 50 µM) | relative viability (4EGI-1 + Pemetrexed; first compound 0.5 µM) | relative viability (4EGI-1 + Pemetrexed; first compound 5 µM) | relative viability (4EGI-1 + Pemetrexed; first compound 15.81 µM) | relative viability (4EGI-1 + Pemetrexed; first compound 50 µM) | relative viability (4EGI-1 + Olaparib; first compound 0.5 µM) | relative viability (4EGI-1 + Olaparib; first compound 5 µM) | relative viability (4EGI-1 + Olaparib; first compound 15.81 µM) | relative viability (4EGI-1 + Olaparib; first compound 50 µM) | relative viability (4EGI-1 + Pemetrexed; first compound 1.581 µM) | relative viability (4EGI-1 + Olaparib; first compound 1.581 µM) | relative viability (4EGI-1 + Crizotinib; first compound 1.581 µM) |
| --- | --- | --- | --- | --- | --- | --- | --- | --- | --- | --- | --- | --- | --- | --- | --- | --- | --- | --- | --- | --- |
| LK-2 | 0.524 | 0.52 | 0.498 | 0.365 | 0.445 | 0.244 | 0.253 | 0.256 | 0.216 | 0.303 | 0.336 | 0.289 | 0.179 | 0.86 | 0.884 | 0.654 | 0.404 | – | – | – |
| LOU-NH91 | 0.946 | 0.979 | 0.909 | 0.914 | 0.751 | 0.788 | 0.72 | 0.508 | 0.55 | 0.431 | 0.387 | 0.435 | 0.481 | 0.95 | 0.911 | 0.738 | 0.564 | – | – | – |
| LU99A | 0.451 | 0.566 | 0.545 | 0.531 | 0.459 | 0.657 | 0.677 | 0.463 | 0.215 | 0.177 | 0.166 | 0.248 | 0.154 | 0.243 | 0.242 | 0.193 | 0.141 | 0.179 | 0.212 | – |
| LXF-289 | 0.916 | 0.927 | 0.964 | 1.01 | 0.883 | 0.889 | 0.817 | 0.672 | 0.332 | 0.874 | 0.941 | 0.804 | 0.605 | 1.09 | 1.02 | 1.05 | 0.513 | 0.909 | 0.975 | 0.803 |
| NCI-H23 | 0.545 | 0.611 | 0.547 | 0.513 | – | 0.592 | 0.654 | 0.501 | 0.481 | 0.819 | 0.77 | 0.551 | 0.274 | 0.335 | 0.278 | 0.245 | 0.161 | – | – | – |
| NCI-H322M | 0.853 | 0.986 | 0.864 | 0.825 | 0.933 | 0.947 | 1.02 | 0.823 | 1.02 | 0.576 | 0.643 | 0.618 | 0.377 | 0.761 | 0.795 | 0.761 | 0.457 | – | – | 0.815 |
| NCI-H358 | 0.756 | 0.832 | – | 0.643 | 0.442 | 0.566 | 0.645 | 0.378 | 0.247 | 0.177 | 0.178 | 0.174 | 0.165 | 0.599 | 0.531 | 0.336 | 0.118 | 0.187 | 0.58 | 0.413 |
| NCI-H441 | 0.473 | 0.683 | 0.647 | 0.5 | 0.388 | 0.968 | 0.72 | 0.461 | 0.213 | 0.257 | 0.276 | 0.229 | 0.184 | 0.654 | 0.597 | 0.315 | 0.192 | 0.249 | 0.425 | 0.472 |
| NCI-H460 | 0.594 | 0.904 | 0.868 | 0.821 | 0.262 | 1.2 | 1.02 | 0.517 | 0.0403 | 0.0637 | 0.0637 | 0.0604 | 0.0616 | 0.425 | 0.436 | 0.244 | 0.134 | 0.0738 | – | – |
| NCI-H520 | 0.86 | 0.914 | 1.16 | 0.849 | 0.67 | 0.963 | 1.02 | 0.642 | 0.648 | 0.674 | 0.677 | 0.655 | 0.123 | 0.375 | 0.458 | 0.265 | 0.13 | 0.704 | 0.329 | 0.868 |
| NCI-H596 | 0.956 | 1.12 | 1.08 | 0.961 | 0.628 | 1.15 | 1.13 | 0.878 | 0.557 | 0.535 | 0.51 | 0.455 | 0.43 | 0.726 | 0.786 | 0.568 | 0.464 | 0.458 | 0.664 | 0.846 |
| NCI-H647 | 1.29 | 1.35 | 1.55 | 0.862 | 0.634 | 1.05 | 1.16 | 0.656 | 0.155 | 0.198 | 0.206 | 0.156 | 0.087 | 0.515 | 0.469 | 0.129 | 0.0662 | 0.179 | 0.42 | 1.05 |
| NCI-H650 | 0.925 | 0.74 | 0.811 | 0.826 | 0.371 | 0.847 | 0.811 | 0.596 | 0.59 | 0.966 | 1.06 | 0.973 | 0.725 | 0.439 | 0.414 | 0.404 | 0.288 | – | – | – |
| NCI-H661 | 0.523 | 0.518 | 0.523 | 0.579 | 0.448 | 0.903 | 0.954 | 0.903 | 0.882 | 0.939 | 0.92 | 0.761 | 0.334 | 0.765 | 0.584 | 0.454 | 0.336 | 0.834 | 0.637 | – |
| NCI-H838 | 0.979 | 0.958 | 1.2 | 1 | 0.507 | 0.843 | 0.905 | 0.706 | 0.378 | 0.247 | 0.244 | 0.225 | 0.174 | 0.752 | 0.677 | 0.372 | 0.161 | 0.255 | 0.752 | – |
